The source of these data is patent publication US9776962B2, “Aromatic compounds with GPR40 agonistic activity” (TAKEDA PHARMACEUTICAL COMPANY LIMITED, priority 2013, dated 2017).

For the test, the target named is T1, human GPR40 (Homo sapiens, UniProt O14842).
T1 construct: expressed in transfected cells
T1 sequence (O14842 whole entry): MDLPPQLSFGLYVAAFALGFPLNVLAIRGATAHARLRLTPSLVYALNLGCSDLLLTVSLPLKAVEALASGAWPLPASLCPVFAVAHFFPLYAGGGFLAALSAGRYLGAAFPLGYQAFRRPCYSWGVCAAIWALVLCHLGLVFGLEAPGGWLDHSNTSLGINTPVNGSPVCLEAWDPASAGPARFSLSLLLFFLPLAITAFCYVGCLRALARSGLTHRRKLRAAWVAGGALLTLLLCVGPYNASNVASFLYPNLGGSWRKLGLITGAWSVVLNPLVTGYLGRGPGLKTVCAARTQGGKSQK
In words: Evaluation of human GPR40 agonist activity with increase in intracellular Ca2+ concentration as an index (FLIPR). It counts as cell-based. Particulars: test compound 1 μM; CHO(dhfr−) cells stably expressing human GPR40; 100% = 10 μM compound of Example 153, 0% = DMSO. The protocol: Plasmid hGPR40/pAKKO-1.11H for mammalian cells expression, wherein cDNA fragment (SEQ ID NO: 1) encoding the full-length human GPR40 was incorporated into an expression vector pAKKO-1.11H (Biochimica et Biophysica Acta vol. 1219 pp. 251-259 (1994)), was transfected into CHO-dhfr(−) cells (ATCC, CRL-9096) by using Lipofectamine 2000 (Invitrogen:11668-019). After transfection, the limiting dilution-culture method was performed to select clone in selection medium (nucleic acid-free α-MEM (Invitrogen:12561-056)) containing 10% dialyzed bovine serum (Invitrogen:26400-044)). The expression level of human GPR40 mRNA was confirmed by TaqMan PCR (Life Technologies), and the intracellular calcium mobilization activity of GPR40 ligand (γ-linolenic acid) was confirmed by FLIPR (Molecular Devices), and a clone of human GPR40 expressing CHO cells was selected.
Evaluation of Human GPR40 Agonist Activity with Increase in Intracellular Ca^2+ Concentration as an Index
CHO(dhfr−) cells that stably expressed human GPR40 were suspended in MEMα (Nikken Bio Medical Laboratory) containing 10% dialyzed bovine serum (JR Scientific), 10 mM HEPES (Life Technologies), 100 U/mL penicillin, 100 μg/mL streptomycin (Life Technologies), and plated on a 384 well black/clear cell culture plate at 10,000 cells/well. After culture overnight in a CO2 incubator at 37° C., the culture supernatant was removed, and loading buffer [Ca^2+ probe attached to Calcium Kit II-iCellux (DOJINDO) was dissolved in assay buffer (20 mM HEPES, 0.1% fatty acid-free BSA (Sigma-Aldrich), 2.5 mM probenecid (DOJINDO)-containing HESS (Life Technologies))] was added at 30 μL/well. After leaving for 1 hr at room temperature under light shielding, assay buffer containing the test compound at a final concentration of 1 μM was added at 10 μL/well in FLIPR Tetra (Molecular Devices), and the fluorescence amount was successively measured. Human GPR40 agonist activity calculated using an increase in the intracellular Ca^2+ concentration as an index, wherein the activity of 10 μM of the compound of Example 153 was 100%, and the activity when DMSO was added instead of the test compound was 0%.
`COc1ccc(C(=O)N(CC(C)(C)C)c2ccccn2)c(N2CC[C@@H](COc3cccc(C(CC(=O)O)C4CC4)c3)[C@@H](C)C2)c1` (stereo partly drawn) [Example 280, (3S)-cyclopropyl-3-(3-(((3R,4R)-1-(2-((2,2-dimethylpropyl) (pyridin-2-yl)carbamoyl)-5-methoxyphenyl)-3-methylpiperidin-4-yl)methoxy)phenyl)-propanoic acid]: the activation at 1 µM came to 6%.
In the case of `COc1ccc(C(=O)N(CC(F)F)c2cc(C)ccn2)c(N2CCC(COc3cc(C(CC(=O)O)C4CC4)ccn3)CC2)c1` (stereo not drawn) [Example 157, 3-cyclopropyl-3-(2-((1-(2-((2,2-difluoroethyl)(4-methylpyridin-2-yl)carbamoyl)-5-methoxyphenyl)piperidin-4-yl)methoxy)pyridin-4-yl)propanoic acid], the activation at 1 µM amounted to 96%.
`COc1ccc(C(=O)N(CC(C)C)c2ccc(OC)nc2)c(N2CCC(COc3cc(C(CC(=O)O)C4CC4)ccn3)CC2)c1` (stereo not drawn) [Example 140, 3-cyclopropyl-3-(2-((1-(5-methoxy-2-((6-methoxypyridin-3-yl)(2-methylpropyl)carbamoyl)phenyl)piperidin-4-yl)methoxy)pyridin-4-yl)propanoic acid] had an activation at 1 µM of 93%.
`COc1ccc(C(=O)N(CC(C)(C)C)c2ncccn2)c(N2CCC(COc3cc(C(CC(=O)O)C4CC4)c(F)cn3)CC2)c1` (stereo not drawn) [Example 273, 3-cyclopropyl-3-(2-((1-(2-((2-dimethylpropyl)-(pyrimidin-2-yl)-carbamoyl)-5-methoxy-phenyl)piperidin-4-yl)-methoxy)-5-fluoropyridin-4-yl)propanoic acid]: the activation at 1 µM was determined as 101%.
`COc1ccc(C(=O)N(CC(C)(C)C)C2CC2)c(N2CCC(COc3cc(C(CC(=O)O)C4CC4)ccn3)CC2)c1` (stereo not drawn) [Example 192, 3-cyclopropyl-3-(2-((1-(2-(cyclopropyl(2,2-dimethylpropyl)carbamoyl)-5-methoxyphenyl)piperidin-4-yl)methoxy)pyridin-4-yl)propanoic acid]: the activation at 1 µM turned out to be 90%.
Take `CCc1ccc(C(=O)N(CC(C)(C)C)c2cccc(C)n2)c(N2CCC(COc3cccc(C(CC(=O)O)C4CC4)c3)CC2)c1` (stereo not drawn) [Example 55, 3-cyclopropyl-3-(3-((1-(2-((2,2-dimethylpropyl)(6-methylpyridin-2-yl)carbamoyl)-5-ethylphenyl)piperidin-4-yl)methoxy)phenyl)propanoic acid]: the activation at 1 µM was found to be 84%.
In the case of `COc1ccnc(N(CC(C)C)C(=O)c2ccc(OC)cc2N2CCC(COc3cc(C(CC(=O)O)C4CC4)ccn3)CC2)c1` (stereo not drawn) [Example 135, 3-cyclopropyl-3-(2-((1-(5-methoxy-2-((4-methoxypyridin-2-yl)(2-methylpropyl)carbamoyl)phenyl)piperidin-4-yl)methoxy)pyridin-4-yl)propanoic acid] it was 94%.
The same measure for `COc1ccc(C(=O)N(CC(C)C)c2ccc(C)cn2)c(N2CCC(COc3cc(C(CC(=O)O)C4CC4)ccn3)CC2)c1` (stereo not drawn) [Example 115, 3-cyclopropyl-3-(2-((1-(5-methoxy-2-((2-methylpropyl)(5-methylpyridin-2-yl)carbamoyl)phenyl)piperidin-4-yl)methoxy)pyridin-4-yl)propanoic acid]: 96%.
`COc1ccc(C(=O)N(CC(C)(C)C)c2cc(C)cnn2)c(N2CCC(COc3cc(C(CC(=O)O)C4CC4)ccn3)CC2)c1` (stereo not drawn) [Example 232, 3-cyclopropyl-3-(2-((1-(2-((2,2-dimethylpropyl) (5-methylpyridazin-3-yl)carbamoyl)-5-methoxyphenyl)piperidin-4-yl)methoxy)pyridin-4-yl)propanoic acid] gave an activation at 1 µM of 85%.
As for `CSc1ccc(C(=O)N(CC(C)(C)C)c2cccc(C)n2)c(N2CCC(COc3cc(C(CC(=O)O)C4CC4)ccn3)CC2)c1` (stereo not drawn) [Example 262, 3-cyclopropyl-3-(2-((1-(2-((2,2-dimethylpropyl)(6-methylpyridin-2-yl)carbamoyl)-5-(methylsulfanyl)phenyl)piperidin-4-yl)methoxy)pyridin-4-yl)propanoic acid], the activation at 1 µM is 90%.
The same measure for `COc1cc(N2CCC(COc3cc(C(CC(=O)O)C4CC4)ccn3)CC2)c(C(=O)N(CC2CC2)c2cc(C)cc(C)n2)cn1` (stereo not drawn) [Example 285, 3-cyclopropyl-3-(2-((1-(5-((cyclopropylmethyl) (4,6-dimethylpyridin-2-yl)carbamoyl)-2-methoxypyridin-4-yl)piperidin-4-yl)methoxy)pyridin-4-yl)propanoic acid]: 99%; for `COc1ccc(C(=O)N(CC(C)(C)C)c2cccc(C)n2)c(N2CCC(COc3cccc(C(CC(=O)O)C4CC4)c3F)CC2)c1` (stereo not drawn) [Example 275, 3-cyclopropyl-3-(3-((1-(2-((2-dimethylpropyl)-(6-methylpyridin-2-yl)-carbamoyl)-5-methoxy-phenyl)piperidin-4-yl)methoxy)-2-fluoro-phenyl)propanoic acid]: 99%; for `COc1ccc(C(=O)N(CC(C)(C)C)c2cc(C)cc(C)n2)c(N2CCC(COc3cc(C(CC(=O)O)C4CC4)ccn3)CC2)c1` (stereo not drawn) [Example 243, 3-cyclopropyl-3-(2-((1-(2-((2,2-dimethylpropyl)(4,6-dimethylpyridin-2-yl)carbamoyl)-5-methoxyphenyl)piperidin-4-yl)methoxy)pyridin-4-yl)propanoic acid]: 101%.
The same measure for `COc1ccc(C(=O)N(CC2CC2)c2ccccn2)c(N2CCC(COc3cc(C(CC(=O)O)C4CC4)ccn3)CC2)c1` (stereo not drawn) [Example 117, 3-cyclopropyl-3-(2-((1-(2-((cyclopropylmethyl)(pyridin-2-yl)carbamoyl)-5-methoxyphenyl)piperidin-4-yl)methoxy)pyridin-4-yl)propanoic acid]: 95%.
For the compound `COc1ccc(C(=O)NC2CCN(CC(F)(F)F)CC2)c(N2CCC(COc3cc(C(CC(=O)O)C4CC4)ccn3)CC2)c1` (stereo not drawn) [Example 193, 3-cyclopropyl-3-(2-((1-(5-methoxy-2-((1-(2,2,2-trifluoroethyl)piperidin-4-yl)carbamoyl)phenyl)piperidin-4-yl)methoxy)pyridin-4-yl)propanoic acid], the activation at 1 µM turned out to be 39%.
`COc1cc(N2CCC(COc3cc(C(CC(=O)O)C4CC4)ccn3)CC2)c(C(=O)N(CC(F)(F)F)c2ccccn2)cn1` (stereo not drawn) [Example 256, 3-cyclopropyl-3-(2-((1-(2-methoxy-5-(pyridin-2-yl(2,2,2-trifluoroethyl)carbamoyl)pyridin-4-yl)piperidin-4-yl)methoxy)pyridin-4-yl)propanoic acid] came in with an activation at 1 µM of 96%.
`COc1ccc(C(=O)N(CC(F)(F)F)c2cncc(C)c2)c(N2CCC(COc3cc(C(CC(=O)O)C4CC4)ccn3)CC2)c1` (stereo not drawn) [Example 175, 3-cyclopropyl-3-(2-((1-(5-methoxy-2-((5-methylpyridin-3-yl)(2,2,2-trifluoroethyl)carbamoyl)phenyl)piperidin-4-yl)methoxy)pyridin-4-yl)propanoic acid] showed an activation at 1 µM of 90%.
Turning to `Cc1cccc(N(CC(C)(C)C)C(=O)c2ccc(S(C)(=O)=O)cc2N2CCC(COc3cc(C(CC(=O)O)C4CC4)ccn3)CC2)n1` (stereo not drawn) [Example 264, 3-cyclopropyl-3-(2-((1-(2-((2,2-dimethylpropyl)(6-methylpyridin-2-yl)carbamoyl)-5-(methylsulfonyl)phenyl)piperidin-4-yl)methoxy)pyridin-4-yl)propanoic acid], the activation at 1 µM was found to be 52%.
Take `Cc1cccc(N(CC(C)(C)C)C(=O)c2ccc(O)cc2N2CCC(COc3cc(C(CC(=O)O)C4CC4)ccn3)CC2)n1` (stereo not drawn) [Example 259, 3-cyclopropyl-3-(2-((1-(2-((2,2-dimethylpropyl)(6-methylpyridin-2-yl)carbamoyl)-5-hydroxyphenyl)piperidin-4-yl)methoxy)pyridin-4-yl)propanoic acid]: the activation at 1 µM was found to be 77%.
In the case of `COc1ccc(C(=O)N(CC(F)F)c2ncccn2)c(N2CCC(COc3cc(C(CC(=O)O)C4CC4)ccn3)CC2)c1` (stereo not drawn) [Example 167, 3-cyclopropyl-3-(2-((1-(2-((2,2-difluoroethyl)(pyrimidin-2-yl)carbamoyl)-5-methoxyphenyl)piperidin-4-yl)methoxy)pyridin-4-yl)propanoic acid] it was 90%.
As for `COc1ccc(C(=O)N(C)CC(F)(F)C(F)(F)F)c(N2CCC(COc3cc(C(CC(=O)O)C4CC4)ccn3)CC2)c1` (stereo not drawn) [Example 130, 3-cyclopropyl-3-(2-((1-(5-methoxy-2-(methyl(2,2,3,3,3-pentafluoropropyl)carbamoyl)phenyl)piperidin-4-yl)methoxy)pyridin-4-yl)propanoic acid], the activation at 1 µM was determined as 100%.
